From patent US20210139435A1, “PROSTAGLANDIN ANALOGS AND USES THEREOF” (Lifex Biolabs, Inc., priority 2019, published 2021)

Molecular target: T1, mouse Nurr1 full-length (Mus musculus, UniProt Q06219)
T1 construct: pcDNA3.1 Myc/His mouse Nurr1 full-length construct; expressed in transfected cells; host or cells: SK-N-BE2C
Experiment: Luciferase reporter gene assay for Nurr1 transcriptional activity in SK-N-BE2C cells
Format: cell-based
Conditions: relative activity over control (luminescence value; 1.0)
Protocol: To investigate whether the PG analogs of the present invention activate Nurr1 function, the inventors of the present invention employed an reporter gene assay and examined the transcriptional activation as described in Kim, C.-H. et al., Proceedings of the National Academy of Sciences 112, 8756-8761, doi:10.1073/pnas.1509742112 (2015).
The gene assay was performed by Luciferase assay as described below:
[Protocol for Luciferase Assay to Determine Nurr1 Transcriptional Activity] • 1. SK-N-BE2C cells were maintained in HyClone™ DMEM High Glucose (Cat. No.: SH30022.01) with 10% (v/v) fetal bovine serum (FBS), 100 units/ml penicillin and 100 μg/ml streptomycin. • 2. Seed 1.5×10^5 SK-N-BE2C cells/well into a 24-well plate and incubate at 37° C. with 5% CO2 for 24 hours. • 3. After 24 hours, transfect cells with pcDNA3.1 Myc/His mouse Nurr1 full-length construct, firefly luciferase reporter vector (pGL-3 basic from Promega, Cat. No.:E1751; with appropriate response element cloned in) and Renilla luciferase control vector (pRL-null from Promega, Cat. No.:E2271) in the ratio of 8:1:1 (Nurr1: firefly: renilla) or 400 ng, 50 ng and 50 ng respectively, amounting to a total of 500 ng in the 50 μl transfection mix for 1 well. • 4. To make the transfection mix, first prepare the DNA with P3000 reagent by adding the appropriate amount of DNA with 1 μl P3000 reagent and top up with Opti-MEM® I Reduced-Serum Media (from ThermoFisher Scientific [Cat. No.: 31985070]) to 25 μl. Incubate for 5 minutes at room temperature. • 5. Make another mix consisting of 1 μl Lipofectamine 3000 reagent with 24 μl Opti-MEM® I Reduced-Serum Media per well. Add this Lipofectamine mix to the previous DNA-P3000 mix (after the previous 5 minute incubation) and incubate them for 15 minutes at room temperature. [P3000:Lipofectamine=1:1]. • 6. In the meantime, change the media in the sample wells with fresh DMEM media without antibiotics. • 7. After 15 minutes incubation, add the 50 μl transfection mix into each well and incubate the plate for 24 hours at 37° C. with 5% CO2. • 8. After 24 hours, change the media to normal DMEM media with antibiotics and add various doses of compounds into designated wells and incubate the plate for another 24 hours at 37° C. with 5% CO2. • 9. Following the 24-hour incubation period, luciferase assay can be conducted using Dual-Glo Luciferase® kit from Promega (Cat. No.: E2920). • 10. Lyse each tested wells for 15 minutes with 75 μl of passive lysis buffer provided in the Dual-Luciferase® kit from Promega (Cat. No.: E1910). [Alternatively, add 75 μl of PBS and 75 μl of Dual-Glo® Luciferase Reagent and incubate for 10 minutes at room temperature (cover the plate with foil to protect from light). Transfer the entire sample in each well to a Greiner CELLSTAR® 96-well white polystyrene plate then proceed to step 13]. • 11. After 15 minutes, transfer each lysed sample to a Greiner CELLSTAR® 96-well white polystyrene plate (Cat. No.:655083). • 12. To each well of lysed cells, add 75 μl of Dual-Glo® Luciferase Reagent and incubate for 10 minutes at room temperature (cover the plate with foil to protect from light). • 13. Set the measurement with a 10-second integrated measurement period. • 14. Add 75 μl of Dual-Glo® Stop & Glo® reagent into each well and incubate for 10 minutes before commencing with the same parameters as before to determine the RLU for the Renilla luciferase. • 15. The averaged reading for wells corresponding to non-transfected cells can be subtracted from each RLU reading and duplicate/triplicate readings can then be averaged. Normalization of the luminescence reading for each well can be carried out by dividing the firefly luciferase RLU with the corresponding Renilla luciferase RLU. Each drug-treated well can then be normalized against the averaged DMSO-treated well reading.

T1 sequence (Q06219 whole entry): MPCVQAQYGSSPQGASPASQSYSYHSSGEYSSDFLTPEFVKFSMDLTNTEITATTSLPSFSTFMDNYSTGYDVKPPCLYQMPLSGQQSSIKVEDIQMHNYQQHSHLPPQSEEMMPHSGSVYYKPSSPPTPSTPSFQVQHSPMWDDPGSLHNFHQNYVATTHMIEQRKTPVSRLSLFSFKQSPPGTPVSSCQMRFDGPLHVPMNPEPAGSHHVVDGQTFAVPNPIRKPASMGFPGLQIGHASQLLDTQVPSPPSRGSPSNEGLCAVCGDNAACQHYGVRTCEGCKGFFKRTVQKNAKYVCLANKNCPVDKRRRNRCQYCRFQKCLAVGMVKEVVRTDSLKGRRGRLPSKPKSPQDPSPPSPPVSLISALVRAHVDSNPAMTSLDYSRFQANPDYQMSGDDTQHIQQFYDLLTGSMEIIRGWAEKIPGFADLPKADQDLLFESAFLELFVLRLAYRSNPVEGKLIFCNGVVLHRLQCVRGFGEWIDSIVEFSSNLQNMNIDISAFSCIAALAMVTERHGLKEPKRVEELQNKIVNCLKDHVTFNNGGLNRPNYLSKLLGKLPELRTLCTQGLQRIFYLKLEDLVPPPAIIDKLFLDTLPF

SMILES	Fold activity (1 uM)
CCCCC[C@H](O)/C=C/[C@H]1[C@H](O)CC(=O)[C@@H]1CCCCCCC(=O)NCCO [Compound 18, Prostaglandin E1 Ethanolamide]	A (above 2.0 (high activity))
CCCCC[C@H](O)/C=C/[C@H]1[C@H](O)CC(=O)[C@@H]1C/C=C\CCCC(=O)NCCCCCNC(=O)CCCC[C@H]1SC[C@@H]2NC(=O)N[C@@H]21 [Compound 39, Prostaglandin E2-biotin]	B (1.1~2.0 (moderate))
CCCCC[C@H](O)/C=C/[C@H]1[C@H](O)CC(=O)[C@@H]1C/C=C\CCCC(=O)OCC(O)CO (stereo partly drawn) [Compound 24, Prostaglandin E2-1-glyceryl ester]	A (above 2.0 (high activity))
CCCCC[C@H](O)/C=C/[C@H]1[C@H](O)CC(=O)[C@@H]1CCCCCCC(=O)Oc1ccc(NC(=O)c2ccccc2)cc1 [Compound 1, 4-Benzamidophenyl-7-((1R,2R,3R)-3-hydroxy-2-((S,E)-3-hydroxyoct-1-enyl)-5-oxocyclopentyl)heptanoate]	A (above 2.0 (high activity))
CCCCC[C@H](O)/C=C/[C@H]1[C@H](O)CC(=O)[C@@H]1CCCCCCC(=O)Nc1ccc(Cl)cc1 [Compound 5, N-(4-chlorophenyl)-7-((1R,2R,3R)-3-hydroxy-2-((S,E)-3-hydroxyoct-1-enyl)-5-oxocyclopentyl)heptanamide]	A (above 2.0 (high activity))
CCCCC[C@H](O)/C=C/[C@H]1[C@H](O)CC(=O)[C@@H]1C/C=C\CCCC(=O)O [Compound 20, Prostaglandin E2]	A (above 2.0 (high activity))
CCCCC[C@H](O)/C=C/[C@H]1[C@@H](O)CC(=O)[C@@H]1C/C=C\CCCC(=O)O [Compound 21, 11b-Prostaglandin E2]	B (1.1~2.0 (moderate))
O=C(O)CCC/C=C\CC1C(O)CC(=O)C1/C=C/C(O)CCc1ccccc1 (stereo not drawn) [Compound 65, 17-phenyl trinor Prostaglandin D2]	C (below 1.0 (low activity))

More lines, now with the values ahead:

Fold activity (1 uM)	SMILES
B (1.1~2.0 (moderate))	CCCCC[C@@H](O)CC[C@H]1[C@H](O)CC(=O)[C@@H]1CCCCCCC(=O)O [Compound 66, 13,14-dihydro-15(R)-Prostaglandin E1]
B (1.1~2.0 (moderate))	CCCCC[C@H](O)/C=C/[C@H]1C(=O)C[C@H](O)[C@@H]1C/C=C\CCCC(=O)O [Compound 64, Prostaglandin D2]
B (1.1~2.0 (moderate))	O=C(O)CCC/C=C\CC1C(=O)CC(O)C1/C=C/C(O)CC1CCCCC1 (stereo not drawn) [Compound 71, 8-iso-16-cyclohexyl-tetranor Prostaglandin E2]
A (above 2.0 (high activity))	CCCCC[C@H](O)/C=C/[C@H]1[C@H](O)CC(=O)[C@@H]1C/C=C\CCCC(=O)OC [Compound 28, Prostaglandin E2 methyl ester]
C (below 1.0 (low activity))	CCCCC[C@H](O)/C=C/[C@H]1C(=O)C[C@H](O)[C@@H]1CCCCCCC(=O)O [Compound 48, Prostaglandin D1]
A (above 2.0 (high activity))	CCCCC(C)(O)C/C=C/[C@H]1[C@H](O)CC(=O)[C@@H]1CCCCCCC(=O)OC (stereo partly drawn) [Compound 75, Misoprostol]
A (above 2.0 (high activity))	O=C(O)CCCCCCC1C(=O)NC(=O)N1CCC(O)C1CCCCC1 (stereo not drawn) [Compound 90, BW245C]
A (above 2.0 (high activity))	C[C@@H](O)CCC[C@H](O)/C=C/[C@H]1[C@H](O)CC(=O)[C@@H]1C/C=C\CCCC(=O)O [Compound 54, 19(R)-hydroxy Prostaglandin E2]
A (above 2.0 (high activity))	O=C(O)CCC/C=C\C[C@H]1C(=O)C[C@@H](O)[C@@H]1/C=C/[C@@H](O)Cc1ccccc1 [Compound 30, 16-phenyl tetranor Prostaglandin E2]
B (1.1~2.0 (moderate))	CCCCCC(=O)/C=C/[C@H]1C(O)CC(=O)[C@H]1C/C=C\CCCC(=O)O (stereo partly drawn) [Compound 82, 8-iso-15-keto Prostaglandin E2]
